Measurements: patent publication US8058476B2, “HCI polymorphs of 3-((2-(dimethylamino)methyl(cyclohex-1-yl)) phenol” (priority 2005, dated 2011)
Entries after “also recorded” stand apart in the source; their conditions may differ. Structures can show the parent of a compound that is named as a salt. Where two headings read alike, the source gives them in different places.

Key:
[1] = Stability in air / chemical stability (description); conditions: for stability in air: normal conditions / ambient temperature
[2] = Thermodynamic stability of the crystalline form (description); assay type: physicochemical; conditions: low temperatures
[3] = Hydrate formation in the presence of atmospheric moisture (description); assay type: physicochemical; conditions: for relative air humidity at which hydrates of the crystalline form V are formed: hydrochloride
[4] = for sequence of stability at room temperature: conditions for avoiding the formation of solvates, from Examples 8.1 to 8.4; for crystalline form found by Raman spectrum: Example 8.4: forms IV and II together in ethyl acetate
[5] = Absorption of water by dynamic vapour sorption (DVS); assay type: physicochemical; conditions: 25° C.; for water content of the sample if the relative air humidity is reduced to 0%: 0% relative air humidity; for water content of the sample if the relative air humidity is reduced to 0% / water content at 50% relative air humidity at the end of the measuring cycle / relative air humidity above which the crystalline form absorbs water very quickly: hydrochloride
Protocol: The absorption of water is ascertained by dynamic vapour sorption (DVS) with a DVS-1 instrument manufactured by Surface Measurement Systems Ltd. The sample is placed in a platinum crucible at the pivot of a microbalance. The sample is then initially equilibrated at 50% relative air humidity and then subjected to a predefined measuring program. The temperature was 25° C. The change in weight of the sample is determined.

[6] = Humid storage of the crystalline forms II and III at 25° C. and 60% relative air humidity; assay type: physicochemical
Protocol: Storage conditions: 25° C. and 60% relative air humidity for 5 hrs, 24 hrs and 7 days
The substances were weighed directly into DSC and TGA crucibles, and these crucibles were stored in a climate chamber.
50 mg of the substances were weighed into 1 ml vials, three times in each case, and these vials were then stored openly in a climate chamber.

[7] = presence of atmospheric moisture
[8] = Example 8.1: forms I and II together in ethyl acetate, eleven days, 25° C.
[9] = 25° C., 60% relative air humidity, 24 hours, second test series
[10] = Example 8.3: forms III and II together in ethyl acetate, three days, 23° C.
[11] = stir-mixing in ethyl acetate, 23° C.

Row | Structure (SMILES) | relative air humidity at which hydrates of the crystalline form V are formed [3, 7] | crystalline form found by Raman spectrum after stirring [4, 8] | sequence of stability at room temperature [4] | water content of the sample if the relative air humidity is reduced to 0% [5] | water content at 50% relative air humidity at the end of the measuring cycle [5] | recorded Raman spectrum at the end of the measuring cycle [5] | relative air humidity above which the crystalline form absorbs water very quickly [5] | water content [6, 9] | crystalline form found by Raman spectrum after stirring [4, 10] | stability in air [1] | stability in air ([1]; hydrochloride) | also measured
1 | CN(C)CC1CCCCC1c1cccc(O)c1 [Amorphous compounds of the formula (1), (1R,2R)-3-[2-(dimethylamino)-methyl(cyclohex-1-yl)]phenol hydrochloride] |  |  |  |  |  |  |  |  |  |  |  | stability of the amorphous form ([1]; in the presence of moisture tends to form hydrates): not very stable
2 | CN(C)C[C@@H]1CCCC[C@H]1c1cccc(O)c1.Cl [crystalline form I, (1R,2R)-3[-2-(dimethylamino)methyl-(cyclohex-1-yl)]phenol hydrochloride] | > 50% | predominantly contained the crystalline form I and small amounts of form V | I>II>III≈IV | 3.2 wt. % | 7.2% | corresponds to the Raman spectrum of the crystalline form V | > 50% |  |  |  |  | temperature up to which the form is thermodynamically the most stable form [2]: approximately 40 °C
3 | CN(C)C[C@@H]1CCCC[C@H]1c1cccc(O)c1.Cl [crystalline form II, (1R,2R)-3-[2-(dimethylamino)methyl-(cyclohex-1-yl)]phenol hydrochloride] | > 70% | predominantly contained the crystalline form I and small amounts of form V | I>II>III≈IV | 3.3 wt. % | 7.9% | corresponds to the Raman spectrum of the crystalline form V | > 75% | 6.08% | only bands of the crystalline form II are measured | stable under normal conditions in air and with exclusion of atmospheric moisture |  | hygroscopicity ([3]; compared with other crystalline forms): less hygroscopic than the compounds of the crystalline forms I, III and IV; relative air humidity at which hydrates of the crystalline form V are formed (only slowly) [3, 7]: > 70%; water absorbed ([6]; 25° C., 60% relative air humidity, 5 hours, first test series (DSC and TGA crucibles), listed as modification II, hydrochloride): 0.04%; water absorbed ([6]; 25° C., 60% relative air humidity, 5 hours, second test series (50 mg in open 1 ml vials), listed as modification II, hydrochloride): 0.12%; water absorbed ([6]; 25° C., 60% relative air humidity, 24 hours, first test series, listed as modification II, hydrochloride): 3.28%; water-absorption behavior ([6]; 25° C., 60% relative air humidity, both test series): absorbs water more slowly in both tests than modification III; water content ([6]; 25° C., 60% relative air humidity, one week, first test series, listed as modification II, hydrochloride): 7.03%; water content ([6]; 25° C., 60% relative air humidity, one week, second test series, listed as modification II, hydrochloride): 7.04%; proportion of water after storage ([6]; 5 hours of storage at a relative air humidity of 60%): < 0.15 wt. %; crystalline form found by Raman spectrum ([4]; 23° C., after 32 days): almost exclusively the crystalline form I was detected; crystalline form found by Raman spectrum ([4]; 23° C., after the first three days): the first traces of the crystalline form I were detected; crystalline form found by Raman spectrum ([4]; 23° C., initially): only bands of the crystalline form II were measured; time at which a small proportion of the crystalline form I can be detected [4, 11]: after three days of stir-mixing; time until complete conversion into the crystalline form I [4, 11]: 32 days; chemical stability [1]: good chemical stability
4 | CN(C)C[C@@H]1CCCC[C@H]1c1cccc(O)c1.Cl [crystalline form III, (1R,2R)-3-[2-(dimethylamino)methyl-(cyclohex-1-yl)]phenol hydrochloride] | > 50% |  | I>II>III≈IV | 3.1 wt. % | 7.8% | corresponds to the Raman spectrum of the crystalline form V | > 55% | 6.08% | only bands of the crystalline form II are measured | stable under normal conditions in air and with exclusion of atmospheric moisture |  | water absorbed ([6]; 25° C., 60% relative air humidity, 5 hours, first test series (DSC and TGA crucibles), listed as modification III, hydrochloride): 6.70%; water absorbed ([6]; 25° C., 60% relative air humidity, 5 hours, second test series (50 mg in open 1 ml vials), listed as modification III, hydrochloride): 1.92%; water absorbed ([6]; 25° C., 60% relative air humidity, 24 hours, first test series, listed as modification III, hydrochloride): 6.28%; water content ([6]; 25° C., 60% relative air humidity, one week, first test series, listed as modification III, hydrochloride): 6.74%; water content ([6]; 25° C., 60% relative air humidity, one week, second test series, listed as modification III, hydrochloride): 6.83%; crystalline form found by Raman spectrum after stirring ([4]; Example 8.2: forms III and IV together in ethyl acetate, twelve days, 23° C.): only bands of the crystalline form I were measured
5 | CN(C)CC1CCCCC1c1cccc(O)c1 [crystalline form IV, (1R,2R)-3-[2-(dimethylamino)methyl(cyclohex-1-yl)]phenol hydrochloride] |  |  | I>II>III≈IV |  |  |  |  |  |  |  | stable under normal conditions in air and with exclusion of atmospheric moisture | 
6 | CN(C)CC1CCCCC1c1cccc(O)c1 [crystalline form V, (1R,2R)-3-[2-(dimethylamino)methyl(cyclohex-1-yl)]phenol hydrochloride] |  |  |  |  |  |  |  |  |  |  | stable in air under normal conditions; also recorded: stable at ambient temperature in air | 
